According to patent US10173991B2, “Sulfone amide linked benzothiazole inhibitors of endothelial lipase” (BRISTOL-MYERS SQUIBB COMPANY, priority 2014, dated 2019):

Target: Endothelial lipase (EL) (Homo sapiens (Human), UniProt Q9Y5X9)
Assay: Endothelial lipase (EL) enzymatic assay with fluorescent substrate A10070 in DMPG vesicles
Assay type: biochemical
Conditions: not given
Procedure, shortened: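 Compounds were preincubated with enzyme for 30 min at 37° C before FRET-substrate vesicles (A10070 in DMPG, 0.11 mole fraction) were added. Reaction rates were obtained from the 300–900 sec slope of fluorescence at 490/530 nm.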

Sequence of Endothelial lipase (EL) (Q9Y5X9 21-500): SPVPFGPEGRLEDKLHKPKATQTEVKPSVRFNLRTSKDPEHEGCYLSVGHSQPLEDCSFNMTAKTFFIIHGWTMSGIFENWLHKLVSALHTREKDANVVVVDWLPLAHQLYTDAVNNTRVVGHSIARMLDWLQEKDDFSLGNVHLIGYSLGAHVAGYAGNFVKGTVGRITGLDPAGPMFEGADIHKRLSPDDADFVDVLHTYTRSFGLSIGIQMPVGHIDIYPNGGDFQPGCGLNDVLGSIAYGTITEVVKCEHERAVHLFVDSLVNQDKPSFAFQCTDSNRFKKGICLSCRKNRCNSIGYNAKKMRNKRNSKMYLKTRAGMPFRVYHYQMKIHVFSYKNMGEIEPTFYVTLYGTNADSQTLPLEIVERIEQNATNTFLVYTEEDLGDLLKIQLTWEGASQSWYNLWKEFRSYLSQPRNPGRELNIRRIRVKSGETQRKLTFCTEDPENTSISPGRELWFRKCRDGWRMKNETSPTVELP

Row | Structure (SMILES) | IC50 [nM]
1 | Cc1cc2nc(C(C(=O)NCC(=O)NC3CC3)S(=O)(=O)C(C)C)sc2cc1-c1ccc2cnn(C)c2c1 (stereo not shown) [Example 260, N-[(cyclopropyl-carbamoyl)methyl]-2-[5-methyl-6-(1-methyl-1H-indazol-6-yl)-1,3-benzothiazol-2-yl]-2-(propane-2-sulfonyl)acetamide] | 7
2 | Cc1cc2nc(C(C(=O)NCC(=O)NC3CC3)S(=O)(=O)C(C)C)sc2cc1-c1ccc(-c2ccccn2)cc1 (stereo not shown) [Example 261, N-[(cyclopropyl-carbamoyl)methyl]-2-{5-methyl-6-[4-(pyridin-2-yl)phenyl]-1,3-benzothiazol-2-yl}-2-(propane-2-sulfonyl) acetamide] | 4
3 | Cc1ccc(-c2cc3nc(C(C(=O)NCC(=O)NC4CC4)S(=O)(=O)C(C)C)sc3cc2F)cn1 (stereo not shown) [Example 262, N-[(cyclopropyl-carbamoyl)methyl]-2-[6-fluoro-5-(6-methylpyridin-3-yl)-1,3-benzothiazol-2-yl]-2-(propane-2-sulfonyl)acetamide] | 10
4 | CC(C)S(=O)(=O)C(C(=O)NCC(=O)NC1CC1)c1nc2cc(-c3ccc(F)nc3)c(F)cc2s1 (stereo not shown) [Example 263, N-[(cyclopropyl-carbamoyl)methyl]-2-[6-fluoro-5-(6-fluoropyridin-3-yl)-1,3-benzothiazol-2-yl]-2-(propane-2-sulfonyl)acetamide] | 13
5 | Cc1cc(-c2cc3nc(C(C(=O)NCC(=O)NC4CC4)S(=O)(=O)C(C)C)sc3cc2F)ccn1 (stereo not shown) [Example 264, N-[(cyclopropyl-carbamoyl)methyl]-2-[6-fluoro-5-(2-methylpyridin-4-yl)-1,3-benzothiazol-2-yl]-2-(propane-2-sulfonyl)acetamide] | 7
6 | CC(C)c1ccc(-c2cc3nc(C(C(=O)NCC(=O)NC4CC4)S(=O)(=O)C(C)C)sc3cc2F)cn1 (stereo not shown) [Example 265, N-[(cyclopropyl-carbamoyl)methyl]-2-{6-fluoro-5-[6-(propan-2-yl)pyridin-3-yl]-1,3-benzothiazol-2-yl}-2-(propane-2-sulfonyl)acetamide] | 4
7 | CC(C)S(=O)(=O)C(C(=O)NCC(=O)NC1CC1)c1nc2cc(-c3ccc4c(c3)CC(=O)N4)c(F)cc2s1 (stereo not shown) [Example 266, N-[(cyclopropyl-carbamoyl)methyl]-2-[6-fluoro-5-(2-oxo-2,3-dihydro-1H-indol-5-yl)-1,3-benzothiazol-2-yl]-2-(propane-2-sulfonyl)acetamide] | 38
8 | CC(C)S(=O)(=O)C(C(=O)NCC(=O)NC1CC1)c1nc2cc(-c3ccc4c(=O)n(C)ccc4c3)c(F)cc2s1 (stereo not shown) [Example 267, N-[(cyclopropyl-carbamoyl)methyl]-2-[6-fluoro-5-(2-methyl-1-oxo-1,2-dihydro-isoquinolin-6-yl)-1,3-benzothiazol-2-yl]-2-(propane-2-sulfonyl) acetamide] | 5
9 | CC(C)n1cc(-c2cc3nc(C(C(=O)NCC(=O)NC4CC4)S(=O)(=O)C(C)C)sc3cc2F)ccc1=O (stereo not shown) [Example 268, N-[(cyclopropyl-carbamoyl)methyl]-2-{6-fluoro-5-[6-oxo-1-(propan-2-yl)-1,6-dihydropyridin-3-yl]-1,3-benzothiazol-2-yl}-2-(propane-2-sulfonyl)acetamide] | 11
10 | COC(=O)Nc1ccc(-c2cc3nc(C(C(=O)NCC(=O)NC4CC4)S(=O)(=O)C(C)C)sc3cc2F)cc1 (stereo not shown) [Example 269, methyl N-{4-[2-({[(cyclopropyl-carbamoyl)methyl]carbamoyl} (propane-2-sulfonyl)methyl)-6-fluoro-1,3-benzothiazol-5-yl]phenyl}carbamate] | 6
11 | CC(C)S(=O)(=O)C(C(=O)NCC(=O)NC1CC1)c1nc2cc(-c3ccc4[nH]c(=O)ccc4c3)c(F)cc2s1 (stereo not shown) [Example 270, N-[(cyclopropyl-carbamoyl)methyl]-2-[6-fluoro-5-(2-oxo-1,2-dihydroquinolin-6-yl)-1,3-benzothiazol-2-yl]-2-(propane-2-sulfonyl)acetamide] | 9
12 | Cc1cc(-c2cc3nc(C(C(=O)NCC(=O)NC4CC4)S(=O)(=O)C(C)C)sc3cc2F)cnn1 (stereo not shown) [Example 271, N-[(cyclopropyl-carbamoyl)methyl]-2-[6-fluoro-5-(6-methylpyridazin-4-yl)-1,3-benzothiazol-2-yl]-2-(propane-2-sulfonyl)acetamide] | 45
13 | CC(C)S(=O)(=O)C(C(=O)NCC(=O)NC1CC1)c1nc2cc(-c3cccnc3F)c(F)cc2s1 (stereo not shown) [Example 272, N-[(cyclopropyl-carbamoyl)methyl]-2-[6-fluoro-5-(2-fluoropyridin-3-yl)-1,3-benzothiazol-2-yl]-2-(propane-2-sulfonyl)acetamide] | 29
14 | CC(C)S(=O)(=O)C(C(=O)NCC(=O)NC1CC1)c1nc2cc(-c3ccc4cnn(C)c4c3)c(F)cc2s1 (stereo not shown) [Example 273, N-[(cyclopropyl-carbamoyl)methyl]-2-[6-fluoro-5-(1-methyl-1H-indazol-6-yl)-1,3-benzothiazol-2-yl]-2-(propane-2-sulfonyl)acetamide] | 9
15 | CC(C)S(=O)(=O)C(C(=O)NCC(=O)NC1CC1)c1nc2cc(-c3cccc4c3cnn4C)c(F)cc2s1 (stereo not shown) [Example 274, N-[(cyclopropyl-carbamoyl)methyl]-2-[6-fluoro-5-(1-methyl-1H-indazol-4-yl)-1,3-benzothiazol-2-yl]-2-(propane-2-sulfonyl)acetamide] | 3
16 | CC(C)S(=O)(=O)C(C(=O)NCC(=O)NC1CC1)c1nc2cc(-c3ccc(C#N)cc3)c(F)cc2s1 (stereo not shown) [Example 275, 2-[5-(4-cyanophenyl)-6-fluoro-1,3-benzothiazol-2-yl]-N-[(cyclopropyl-carbamoyl)methyl]-2-(propane-2-sulfonyl)acetamide] | 40
17 | CC(C)S(=O)(=O)C(C(=O)NCC(=O)NC1CC1)c1nc2cc(-c3cn(C)c(=O)c4ccccc34)c(F)cc2s1 (stereo not shown) [Example 276, N-[(cyclopropyl-carbamoyl)methyl]-2-[6-fluoro-5-(2-methyl-1-oxo-1,2-dihydro-isoquinolin-4-yl)-1,3-benzothiazol-2-yl]-2-(propane-2-sulfonyl) acetamide] | 8
18 | CC(C)S(=O)(=O)C(C(=O)NCC(=O)NC1CC1)c1nc2cc(-c3ccc(C(=O)N4CCC4)cc3)c(F)cc2s1 (stereo not shown) [Example 277, 2-{5-[4-(azetidine-1-carbonyl)phenyl]-6-fluoro-1,3-benzothiazol-2-yl}-N-[(cyclopropyl-carbamoyl)methyl]-2-(propane-2-sulfonyl)acetamide] | 13
19 | COC(=O)Nc1cccc(-c2ccc3nc(C(C(=O)NCC(=O)NC4CC4)S(=O)(=O)Cc4cccc(C#N)c4)sc3c2)c1 (stereo not shown) [Example 278, methyl N-(3-{2-[(3-cyanophenyl)methanesulfonyl ({[(cyclopropyl-carbamoyl)methyl]carbamoyl})methyl]-1,3-benzothiazol-6-yl}phenyl)carbamate] | 9
20 | CC(=O)Nc1cccc(-c2ccc3nc(C(C(=O)NCC(=O)NC4CC4)S(=O)(=O)Cc4cccc(C#N)c4)sc3c2)c1 (stereo not shown) [Example 279] | 89
21 | COC(=O)Nc1cccc(-c2cc(F)c3nc(C(C(=O)NCC(=O)NC4CC4)S(=O)(=O)C(C)C)sc3c2)c1 (stereo not shown) [Example 280, methyl N-{3-[2-({[(cyclopropyl-carbamoyl)methyl]carbamoyl} (propane-2-sulfonyl)methyl)-4-fluoro-1,3-benzothiazol-6-yl]phenyl}carbamate] | 6
22 | CC(C)S(=O)(=O)C(C(=O)NCC(=O)NC1CC1)c1nc2c(F)cc(-c3ccc4cnn(C)c4c3)cc2s1 (stereo not shown) [Example 281, N-[(cyclopropyl-carbamoyl)methyl]-2-[4-fluoro-6-(1-methyl-1H-indazol-6-yl)-1,3-benzothiazol-2-yl]-2-(propane-2-sulfonyl)acetamide] | 9
23 | CC(C)S(=O)(=O)C(C(=O)NCC(=O)NC1CC1)c1nc2c(F)cc(-c3cnc(-c4ccccc4)nc3)cc2s1 (stereo not shown) [Example 282, N-[(cyclopropyl-carbamoyl)methyl]-2-[4-fluoro-6-(2-phenylpyrimidin-5-yl)-1,3-benzothiazol-2-yl]-2-(propane-2-sulfonyl)acetamide] | 22
24 | CC(C)S(=O)(=O)C(C(=O)NCC(=O)NC1CC1)c1nc2c(F)cc(-c3ccc(N4CCCC4=O)cc3)cc2s1 (stereo not shown) [Example 283, N-[(cyclopropyl-carbamoyl)methyl]-2-{4-fluoro-6-[4-(2-oxopyrrolidin-1-yl)phenyl]-1,3-benzothiazol-2-yl}-2-(propane-2-sulfonyl)acetamide] | 10
25 | CC(C)S(=O)(=O)C(C(=O)NCC(=O)NC1CC1)c1nc2c(F)cc(-c3ccc(C(=O)N4CCC4)cc3)cc2s1 (stereo not shown) [Example 284, 2-{6-[4-(azetidine-1-carbonyl)phenyl]-4-fluoro-1,3-benzothiazol-2-yl}-N-[(cyclopropyl-carbamoyl)methyl]-2-(propane-2-sulfonyl)acetamide] | 12
26 | Cc1cc2nc(C(C(=O)NCC(=O)NC3CC3)S(=O)(=O)C(C)C)sc2cc1-c1ccc(NC(=O)OCc2ccccc2)cc1 (stereo not shown) [Example 285, benzyl N-{4-[2-({[(cyclopropyl-carbamoyl)methyl]carbamoyl} (propane-2-sulfonyl)methyl)-5-methyl-1,3-benzothiazol-6-yl]phenyl}carbamate] | 12
27 | COCCS(=O)(=O)C(C(=O)NCC(=O)NC1CC1)c1nc2cc(F)c(-c3ccc(-c4noc(=O)[nH]4)cc3)cc2s1 (stereo not shown) [Example 286, N-[(cyclopropyl-carbamoyl)methyl]-2-{5-fluoro-6-[4-(5-oxo-4,5-dihydro-1,2,4-oxadiazol-3-yl)phenyl]-1,3-benzothiazol-2-yl}-2-(2-methoxyethane-sulfonyl)acetamide] | 8

Same assay, conditions: EL from conditioned media of HT-1080 cells; 30 min preincubation at 37° C.

Row | Structure (SMILES) | IC50 [nM]
28 | CC(C)OCCNC(=O)CNC(=O)C(c1nc2ccc(-c3ccc4c(c3)CNC4=O)cc2s1)S(C)(=O)=O (stereo not shown) [Example 287, N-(2-((2-Isopropoxyethyl)amino)-2-oxoethyl)-2-(methylsulfonyl)-2-(6-(1-oxoisoindolin-5-yl)benzo[d]thiazol-2-yl)acetamide] | 2.9
